This is an account of results in ChEMBL document CHEMBL3046907, “Microwave-assisted synthesis of pyrido[1,2-a]benzimidazole derivatives of -aryloxyquinoline and their antimicrobial and antituberculosis activities” (2013).

The structures appear in SMILES notation. ≈ marks a conversion by molar mass, not a printed value.

What all share (type): functional
Assay [1] concerns Mycobacterium tuberculosis. Description: Growth inhibition of Mycobacterium tuberculosis H37Rv at 6.25 ug/ml after 28 days by Lowenstein-Jensen method. Particulars: 672 h, read-out: GI.
Another assay relates to Candida albicans. Description: Antifungal activity against Candida albicans MTCC 227 after overnight incubation by broth microdilution method. Background: Dilution methods test growth across graded concentrations, often in twofold steps.
A further assay concerns Aspergillus fumigatus. Put plainly: Antifungal activity against Aspergillus fumigatus MTCC 3008 after overnight incubation by broth microdilution method.
The test system of a further assay is Vibrio cholerae. Description: Antibacterial activity against Vibrio cholerae MTCC 3906 after overnight incubation by broth microdilution method.
A further assay concerns Salmonella typhi. Put plainly: Antibacterial activity against Salmonella enterica subsp. enterica serovar Typhi MTCC 98 after overnight incubation by broth microdilution method.
Another assay has as its system Escherichia coli. Description: Antibacterial activity against Escherichia coli MTCC 443 after overnight incubation by broth microdilution method.
The subject of a further assay is Clostridium tetani. Put plainly: Antibacterial activity against Clostridium tetani MTCC 449 after overnight incubation by broth microdilution method.
The next assay concerns Streptococcus pneumoniae. Put plainly: Antibacterial activity against Streptococcus pneumoniae MTCC 1936 after overnight incubation by broth microdilution method.
A further assay deals with Bacillus subtilis. Description: Antibacterial activity against Bacillus subtilis MTCC 441 after overnight incubation by broth microdilution method.

As to `N#Cc1c(-c2cc3ccccc3nc2Oc2ccccc2)c(C#N)c2nc3ccccc3n2c1N`, the inhibition of growth at 6.25 µg/mL in assay [1] was found to be 80%. Further, the MIC99 was found to be 1000 µg/mL (≈ 2210 µM) against Candida albicans; 500 µg/mL (≈ 1110 µM) against Aspergillus fumigatus; 200 µg/mL (≈ 442 µM) against Vibrio cholerae; 250 µg/mL (≈ 553 µM) against Salmonella typhi; 250 µg/mL (≈ 553 µM) against Escherichia coli; 100 µg/mL (≈ 221 µM) with Clostridium tetani. Further, the values for the MIC99 in the assay with Streptococcus pneumoniae and in the assay with Bacillus subtilis were 62.5 µg/mL (≈ 138 µM) and 100 µg/mL (≈ 221 µM), respectively.

Turning to `Cc1ccc(Oc2nc3ccccc3cc2-c2c(C#N)c(N)n3c(nc4cc(C)ccc43)c2C#N)cc1`, the inhibition of growth at 6.25 µg/mL in assay [1] amounted to 12%. In addition, the MIC99 in the assay on Candida albicans is 500 µg/mL (≈ 1040 µM); against Aspergillus fumigatus, 1000 µg/mL (≈ 2080 µM); against Vibrio cholerae, 200 µg/mL (≈ 416 µM); against Salmonella typhi it was 200 µg/mL (≈ 416 µM); against Escherichia coli, 62.5 µg/mL (≈ 130 µM); in the assay on Clostridium tetani, 62.5 µg/mL (≈ 130 µM). Besides, the values for the MIC99 in the assay on Streptococcus pneumoniae and in the assay on Bacillus subtilis were 200 µg/mL (≈ 416 µM) and 250 µg/mL (≈ 520 µM), respectively.

As for `COc1ccc2nc(Oc3ccccc3)c(-c3c(C#N)c(N)n4c(nc5cc(C)ccc54)c3C#N)cc2c1`, in assay [1], the inhibition of growth at 6.25 µg/mL was 78%. In addition, the MIC99 was found to be 1000 µg/mL (≈ 2010 µM) in the assay with Candida albicans; 500 µg/mL (≈ 1010 µM) in the assay on Aspergillus fumigatus; 250 µg/mL (≈ 503 µM) against Vibrio cholerae; 100 µg/mL (≈ 201 µM) in the assay with Salmonella typhi; 62.5 µg/mL (≈ 126 µM) in the assay with Escherichia coli; 250 µg/mL (≈ 503 µM) with Clostridium tetani. In addition, the MIC99 against Streptococcus pneumoniae and against Bacillus subtilis was 250 µg/mL (≈ 503 µM) throughout.

In the case of `COc1ccc(Oc2nc3ccc(C)cc3cc2-c2c(C#N)c(N)n3c(nc4cc(C)ccc43)c2C#N)cc1`, the inhibition of growth at 6.25 µg/mL in assay [1] was 25%. Further, the MIC99 in the assay with Candida albicans was 1000 µg/mL (≈ 1960 µM); against Aspergillus fumigatus, above 1000 µg/mL; in the assay with Vibrio cholerae it was 200 µg/mL (≈ 392 µM); against Salmonella typhi, 250 µg/mL (≈ 490 µM); against Escherichia coli, 250 µg/mL (≈ 490 µM); in the assay with Clostridium tetani it was 100 µg/mL (≈ 196 µM). For the same compound, the MIC99 against Streptococcus pneumoniae and with Bacillus subtilis was 125 µg/mL (≈ 245 µM) each time.

As to `COc1ccc(Oc2nc3ccccc3cc2-c2c(C#N)c(N)n3c(nc4ccccc43)c2C#N)cc1`, the inhibition of growth at 6.25 µg/mL in [1] was 24%. The MIC99 was 250 µg/mL (≈ 518 µM) against Candida albicans; 500 µg/mL (≈ 1040 µM) in the assay on Aspergillus fumigatus; 125 µg/mL (≈ 259 µM) in the assay on Vibrio cholerae; 200 µg/mL (≈ 415 µM) against Salmonella typhi; 125 µg/mL (≈ 259 µM) with Escherichia coli; 250 µg/mL (≈ 518 µM) against Clostridium tetani. In addition, the results for the MIC99 in the assay with Streptococcus pneumoniae and against Bacillus subtilis were 200 µg/mL (≈ 415 µM) and 250 µg/mL (≈ 518 µM), respectively.

On to `Cc1ccc2c(c1)nc1c(C#N)c(-c3cc4ccccc4nc3Oc3ccccc3)c(C#N)c(N)n12`, for which the inhibition of growth at 6.25 µg/mL in [1] was determined as 49%. Further, the MIC99 in the assay with Candida albicans was determined as 500 µg/mL (≈ 1070 µM); in the assay on Aspergillus fumigatus, 500 µg/mL (≈ 1070 µM); in the assay with Vibrio cholerae it was 500 µg/mL (≈ 1070 µM); against Salmonella typhi it was 200 µg/mL (≈ 429 µM); with Escherichia coli, 100 µg/mL (≈ 214 µM); against Clostridium tetani it was 250 µg/mL (≈ 536 µM). Also, the MIC99 worked out at 250 µg/mL (≈ 536 µM) in the assay on Streptococcus pneumoniae and 200 µg/mL (≈ 429 µM) against Bacillus subtilis.

For `COc1ccc2nc(Oc3ccccc3)c(-c3c(C#N)c(N)n4c(nc5ccccc54)c3C#N)cc2c1`, the inhibition of growth at 6.25 µg/mL in assay [1] was found to be 46%. The MIC99 with Candida albicans was 500 µg/mL (≈ 1040 µM); against Aspergillus fumigatus, 1000 µg/mL (≈ 2070 µM); in the assay with Vibrio cholerae, 200 µg/mL (≈ 415 µM); against Salmonella typhi, 200 µg/mL (≈ 415 µM); with Escherichia coli, 250 µg/mL (≈ 518 µM); with Clostridium tetani, 100 µg/mL (≈ 207 µM). The MIC99 against Streptococcus pneumoniae and against Bacillus subtilis was 250 µg/mL (≈ 518 µM) throughout.

Regarding `Cc1ccc(Oc2nc3ccccc3cc2-c2c(C#N)c(N)n3c(nc4ccccc43)c2C#N)cc1`, in assay [1], the inhibition of growth at 6.25 µg/mL was 52%. Also, the MIC99 in the assay with Candida albicans was above 1000 µg/mL; against Aspergillus fumigatus, 250 µg/mL (≈ 536 µM); against Vibrio cholerae it was 100 µg/mL (≈ 214 µM); with Salmonella typhi it was 100 µg/mL (≈ 214 µM); in the assay with Escherichia coli it was 100 µg/mL (≈ 214 µM); against Clostridium tetani, 250 µg/mL (≈ 536 µM). For the same compound, the MIC99 in the assay on Streptococcus pneumoniae worked out at 125 µg/mL (≈ 268 µM); against Bacillus subtilis, 250 µg/mL (≈ 536 µM).

Consider `Cc1ccc(Oc2nc3ccc(C)cc3cc2-c2c(C#N)c(N)n3c(nc4ccccc43)c2C#N)cc1`, for which the inhibition of growth at 6.25 µg/mL in assay [1] was found to be 32%. The MIC99 was 1000 µg/mL (≈ 2080 µM) against Candida albicans; above 1000 µg/mL against Aspergillus fumigatus; 100 µg/mL (≈ 208 µM) with Vibrio cholerae; 125 µg/mL (≈ 260 µM) in the assay on Salmonella typhi; 100 µg/mL (≈ 208 µM) with Escherichia coli; 500 µg/mL (≈ 1040 µM) against Clostridium tetani. Moreover, the MIC99 with Streptococcus pneumoniae came out at 250 µg/mL (≈ 520 µM); in the assay on Bacillus subtilis, 100 µg/mL (≈ 208 µM).

In the case of `CC1(C)S[C@@H]2[C@H](NC(=O)[C@H](N)c3ccccc3)C(=O)N2[C@H]1C(=O)O` [AMPICILLIN], the MIC99 against Vibrio cholerae was 100 µg/mL (≈ 286 µM); against Salmonella typhi, 100 µg/mL (≈ 286 µM); with Escherichia coli, 100 µg/mL (≈ 286 µM); in the assay with Clostridium tetani, 250 µg/mL (≈ 715 µM); with Streptococcus pneumoniae, 100 µg/mL (≈ 286 µM); against Bacillus subtilis it was 250 µg/mL (≈ 715 µM).

For `CCn1cc(C(=O)O)c(=O)c2cc(F)c(N3CCNCC3)cc21` [NORFLOXACIN], the MIC99 against Vibrio cholerae was 10 µg/mL (≈ 31.3 µM); in the assay with Salmonella typhi, 10 µg/mL (≈ 31.3 µM); with Escherichia coli, 10 µg/mL (≈ 31.3 µM); with Clostridium tetani it was 50 µg/mL (≈ 157 µM); in the assay with Streptococcus pneumoniae, 10 µg/mL (≈ 31.3 µM); against Bacillus subtilis it was 100 µg/mL (≈ 313 µM).

For orientation: MIC99 means the lowest concentration that inhibits either 99% of growth or 99% of the strains tested, depending on the study.
